This passage reports MIC results from ChEMBL document CHEMBL1255459, “Identification and characterization of CTX-M-producing Shigella isolates in the United States” (2010).

Holding throughout (assay type): functional
Assay [1] has as its system Shigella flexneri. The experiment in a line: Antimicrobial activity against Shigella flexneri isolate AM13291 by broth microdilution method. (In general: Dilution methods test growth across graded concentrations, often in twofold steps.)
For assay [2], the system named is Shigella. The experiment in a line: Antimicrobial activity against Shigella isolate DH-22451 by broth microdilution method.
In assay [3] the test system is Shigella sonnei. The experiment in a line: Antimicrobial activity against Shigella sonnei isolate AM22451 by broth microdilution method.
Assay [4] deals with Shigella. The experiment in a line: Antimicrobial activity against Shigella isolate DH-22855 by broth microdilution method.
Assay [5] relates to Shigella flexneri. The experiment in a line: Antimicrobial activity against Shigella flexneri isolate AM26336 by broth microdilution method.
Assay [6] concerns Shigella sonnei. The experiment in a line: Antimicrobial activity against Shigella sonnei isolate AM22855 by broth microdilution method.
In assay [7] the test system is Shigella flexneri. The experiment in a line: Antimicrobial activity against Shigella flexneri isolate AM19035 by broth microdilution method.
In assay [8] the test system is Shigella sonnei. The experiment in a line: Antimicrobial activity against Shigella sonnei isolate AM20369 by broth microdilution method.
For assay [9], the system named is Shigella. Put plainly: Antimicrobial activity against Shigella isolate DH-13291 by broth microdilution method.
The subject of assay [10] is Shigella. The experiment in a line: Antimicrobial activity against Shigella isolate DH-19035 by broth microdilution method.
The subject of assay [11] is Shigella. The experiment in a line: Antimicrobial activity against Shigella isolate DH-26336 by broth microdilution method.
Assay [12] deals with Shigella. Put plainly: Antimicrobial activity against Shigella isolate DH-20369 by broth microdilution method.

One may read the MIC as the lowest concentration that inhibits growth of the organism.

Values after ≈ are worked out from the molar mass of the structure shown.

As to `CO/N=C(\C(=O)N[C@@H]1C(=O)N2C(C(=O)[O-])=C(C[N+]3(C)CCCC3)CS[C@H]12)c1csc(N)n1` [CEFEPIME], the MIC in the assay with Shigella flexneri [1] stood at 2 µg/mL (≈ 4.16 µM); against Shigella [2] it was 16 µg/mL (≈ 33.3 µM); in the assay with Shigella sonnei [3], 8 µg/mL (≈ 16.6 µM); in the assay with Shigella [4] it was 16 µg/mL (≈ 33.3 µM); in the assay on Shigella flexneri [5] it was 2 µg/mL (≈ 4.16 µM); in the assay on Shigella sonnei [6], 8 µg/mL (≈ 16.6 µM). In addition, the MIC is 2 µg/mL (≈ 4.16 µM) against Shigella flexneri [7]; 8 µg/mL (≈ 16.6 µM) against Shigella sonnei [8]; 4 µg/mL (≈ 8.32 µM) with Shigella [9]; 4 µg/mL (≈ 8.32 µM) against Shigella [10]; 4 µg/mL (≈ 8.32 µM) against Shigella [11]; 16 µg/mL (≈ 33.3 µM) against Shigella [12].
With `CO/N=C(\C(=O)N[C@@H]1C(=O)N2C(C(=O)O)=C(CSc3nc(=O)c(O)nn3C)CS[C@H]12)c1csc(N)n1` [CEFTRIAXONE], the minimum inhibitory concentration (MIC) was 16 µg/mL (≈ 28.9 µM) in the assay on Shigella flexneri [1]; above 64 µg/mL in the assay on Shigella [2]; above 64 µg/mL in the assay with Shigella sonnei [3]; above 64 µg/mL against Shigella [4]; 16 µg/mL (≈ 28.9 µM) with Shigella flexneri [5]; 64 µg/mL (≈ 115 µM) in the assay with Shigella sonnei [6]. Besides, the MIC in the assay on Shigella flexneri [7] was 32 µg/mL (≈ 57.7 µM); against Shigella sonnei [8], 64 µg/mL (≈ 115 µM); against Shigella [9], 32 µg/mL (≈ 57.7 µM); in the assay with Shigella [10] it was 32 µg/mL (≈ 57.7 µM); in the assay with Shigella [11], 32 µg/mL (≈ 57.7 µM); in the assay with Shigella [12] it was above 64 µg/mL.
With `CO/N=C(\C(=O)N[C@@H]1C(=O)N2C(C(=O)O)=C(COC(C)=O)CS[C@H]12)c1csc(N)n1` [CEFOTAXIME], the minimal inhibitory concentration (MIC) in the assay on Shigella flexneri [1] stood at 8 µg/mL (≈ 17.6 µM); in the assay with Shigella [2], 128 µg/mL (≈ 281 µM); in the assay with Shigella sonnei [3], 64 µg/mL (≈ 141 µM); in the assay on Shigella [4] it was 64 µg/mL (≈ 141 µM); against Shigella flexneri [5], 8 µg/mL (≈ 17.6 µM); in the assay with Shigella sonnei [6] it was 64 µg/mL (≈ 141 µM). Besides, the minimal inhibitory concentration (MIC) against Shigella flexneri [7] was 32 µg/mL (≈ 70.3 µM); in the assay on Shigella sonnei [8] it was 64 µg/mL (≈ 141 µM); in the assay with Shigella [9], 32 µg/mL (≈ 70.3 µM); in the assay with Shigella [10], 64 µg/mL (≈ 141 µM); against Shigella [11], 64 µg/mL (≈ 141 µM); in the assay on Shigella [12], 128 µg/mL (≈ 281 µM).
Consider `CC(C)(O/N=C(\C(=O)N[C@@H]1C(=O)N2C(C(=O)[O-])=C(C[n+]3ccccc3)CS[C@H]12)c1csc(N)n1)C(=O)O` [CEFTAZIDIME], for which the MIC in the assay with Shigella flexneri [1] came to 0.5 µg/mL (≈ 0.915 µM); against Shigella [2], 32 µg/mL (≈ 58.5 µM); against Shigella sonnei [3] it was 8 µg/mL (≈ 14.6 µM); against Shigella [4] it was 16 µg/mL (≈ 29.3 µM); against Shigella flexneri [5], 0.5 µg/mL (≈ 0.915 µM); in the assay on Shigella sonnei [6], 8 µg/mL (≈ 14.6 µM). For the same molecule, the minimum inhibitory concentration (MIC) against Shigella flexneri [7] was 0.5 µg/mL (≈ 0.915 µM); against Shigella sonnei [8], 8 µg/mL (≈ 14.6 µM); with Shigella [9] it was 2 µg/mL (≈ 3.66 µM); with Shigella [10], 2 µg/mL (≈ 3.66 µM); against Shigella [11] it was 4 µg/mL (≈ 7.32 µM); against Shigella [12], 16 µg/mL (≈ 29.3 µM).
